In patent US8946412B2 (priority 2009, dated 2015) one finds IC50 data, which are given here for two compounds.

Structures are written as SMILES. pIC50: −log10 of the molar value. Counter-ions that a name gives are not always drawn. Like-named read-outs stand apart in the source and are kept apart here.

The target in the assay is α7-subtype of nicotinic receptors (Rattus norvegicus, UniProt Q05941). As to the kind of experiment: biochemical. In kind it is binding.
α7-subtype of nicotinic receptors, sequence (Q05941 23-502): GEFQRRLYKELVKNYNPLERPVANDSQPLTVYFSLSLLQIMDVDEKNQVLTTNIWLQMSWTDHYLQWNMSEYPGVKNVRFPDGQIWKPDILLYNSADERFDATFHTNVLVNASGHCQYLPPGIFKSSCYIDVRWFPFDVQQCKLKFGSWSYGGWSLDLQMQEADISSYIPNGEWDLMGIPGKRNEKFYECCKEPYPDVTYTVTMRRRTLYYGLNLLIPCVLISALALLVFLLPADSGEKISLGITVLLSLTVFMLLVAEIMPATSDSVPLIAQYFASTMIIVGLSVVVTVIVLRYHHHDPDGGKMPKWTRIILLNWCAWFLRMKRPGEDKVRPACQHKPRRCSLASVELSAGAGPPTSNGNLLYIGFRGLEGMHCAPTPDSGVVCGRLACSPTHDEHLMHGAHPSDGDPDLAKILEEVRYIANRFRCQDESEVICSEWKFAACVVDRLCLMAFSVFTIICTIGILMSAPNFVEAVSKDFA

The compound `FCCn1cccc1-c1nnc(N2CCN3CCC2CC3)o1` [Compound 1, 2-(1,4-Diazabicyclo[3.2.2]nonan-4-yl)-5-[1-(2-fluoroethyl)pyrrol-2-yl]-1,3,4-oxadiazole fumaric acid salt] gave a pIC50 of 7.96.
Regarding `c1c[nH]c(-c2nnc(N3CCN4CCC3CC4)o2)c1` [Compound 3, 2-(1,4-Diazabicyclo[3.2.2]nonan-4-yl)-5-(1H-pyrrol-2-yl)-1,3,4-oxadiazole free base], the pIC50 (rat brain, concentration inhibiting specific binding of 3H-α-bungarotoxin by 50%, read-out: IC50 Inhibition of 3H-α-Bungarotoxine Binding) was 7.77.

As usually defined, the pIC50 is the negative decadic logarithm of the IC50, by convention in mol/L.
